Activity calls are given as the source filed them. The calls are words filed in the database; no cut-off is given here.
What was measured:
Danio rerio [1] = species: Danio rerio; experiment: Anticonvulsant activity in AB zebra fish larvae assessed as reduction in PTZ-induced convulsant behavior by measuring lowest observed effect concentration pretreated for 6 hrs followed by PTZ-stimulation and measured every 5 mins for 1 hr; type: functional; conditions: time 7 hrs
[2] = Toxicity in AB zebra fish larvae assessed as maximum tolerated concentration after 6 hrs; design: species or system Danio rerio; conditions: zebrafish, read-out: MTC
[3] = Neurotoxicity in AB zebra fish larvae at 25 uM after 6 hrs; type: toxicity, Danio rerio; conditions: zebrafish
[4] = Ratio of MTC for toxicity in AB zebra fish larvae to lowest observed effect concentration for Anticonvulsant activity in AB zebra fish larvae assessed as reduction in PTZ-induced convulsant behavior; design: species or system Danio rerio
[5] = Neurotoxicity in AB zebra fish larvae assessed as increase in total swimming distance at > 12.5 uM after 6 hrs; type: toxicity, Danio rerio; conditions: zebrafish
Danio rerio [6] = species: Danio rerio; experiment: Anticonvulsant activity in AB zebra fish larvae assessed as reduction in PTZ-induced convulsant behavior by measuring swimming distance at 3.1 to 12.5 uM pretreated for 6 hrs followed by PTZ-stimulation and measured every 5 mins for 1 hr; type: functional, organism-based; conditions: dose 3.1-12.5 µM, time 7.0 hrs
[7] = Neurotoxicity in AB zebra fish larvae assessed as decrease in total swimming distance at <= MTC after 6 hrs; type: toxicity, Danio rerio; conditions: zebrafish
[8] = Toxicity in AB zebra fish larvae assessed as mortality at >= 25 uM after 6 hrs; design: species or system Danio rerio; conditions: zebrafish
Danio rerio [9] = species: Danio rerio; experiment: Anticonvulsant activity in AB zebra fish larvae assessed as reduction in PTZ-induced convulsant behavior by measuring swimming distance at 0.7 uM pretreated for 6 hrs followed by PTZ-stimulation and measured every 5 mins for 1 hr; type: functional, organism-based; conditions: time 7.0 hrs
[10] = Toxicity in AB zebra fish larvae assessed as mortality at >= 6.2 uM after 6 hrs relative to control; design: species or system Danio rerio; conditions: zebrafish
[11] = Neurotoxicity in AB zebra fish larvae at 1.5 uM after 6 hrs; type: toxicity, Danio rerio; conditions: zebrafish

| SMILES | Activity (Danio rerio [1]) [µM] | MNTC at 6 h [2] [µM] | Activity [3] | Ratio [4] | Activity [5] | Activity (Danio rerio [6]) | Activity [7] | Activity [8] | Activity (Danio rerio [9]) | mortality at 6 h [10] [%] | Activity [11] |
| --- | --- | --- | --- | --- | --- | --- | --- | --- | --- | --- | --- |
| CC(C)=CCC1(CC=C(C)C)C(=O)C(O)=C(O)c2oc3c4c(cc(O)c3c(=O)c21)OC(C)(C)C=C4 | >12.5 | 12.5 | Toxic | <1 | Toxic | inactive | Non-Toxic | Toxic |  |  |  |
| CC(C)=CCC12CC(C(C)(C)O)OC1=C(O)C(=O)c1oc3c4c(cc(O)c3c(=O)c12)OC(C)(C)C=C4 (stereo not given) | 0.7 | 0.7 |  | 1 |  |  | Non-Toxic |  | Active | 100 | Toxic |
